PubChem BioAssay AID248 (DTP/NCI, 2004)
Several values for one entry are separate records, joined by “and”; a condition that tells them apart may be missing. Identical values can stand only once. Inconclusive results and toxic doses are left out. No stated cut-off is given here; in the data, active means T/C of 150% or more; inactive means T/C below 125%.

Test system: L1210 leukemia ip in BDF1 mice, survival T/C
Experiment: NCI In Vivo Anticancer Drug Screen. Data for tumor model L1210 Leukemia (intraperitoneal) in B6D2F1 (BDF1) mice
Settings: endpoint: mean survival time, higher = longer survival
Summary of the method: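 Value reflects the ratio of survival in compound-treated mice to survival in vehicle-treated controls, with both groups carrying the same transplanted tumor.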

[1] = dose: 6.25 mg/kg/injection, schedule: Q04DX003 (ip), vehicle: saline
[2] = dose: 12.5 mg/kg/injection, schedule: Q04DX003 (ip), vehicle: saline
[3] = dose: 25.0 mg/kg/injection, schedule: Q04DX003 (ip), vehicle: saline
[4] = dose: 100.0 mg/kg/injection, schedule: Q04DX003 (ip), vehicle: saline with Tween-80
[5] = dose: 200.0 mg/kg/injection, schedule: Q04DX003 (ip), vehicle: saline with Tween-80
[6] = dose: 50.0 mg/kg/injection, schedule: Q04DX003 (ip), vehicle: saline
[7] = dose: 100.0 mg/kg/injection, schedule: Q01DX001 (ip), vehicle: saline
[8] = dose: 200.0 mg/kg/injection, schedule: Q01DX001 (ip), vehicle: saline
[9] = dose: 400.0 mg/kg/injection, schedule: Q01DX001 (ip), vehicle: saline
[10] = dose: 100.0 mg/kg/injection, schedule: Q04DX003 (ip), vehicle: Klucel (hydroxypropylcellulose) (HPC)
[11] = dose: 200.0 mg/kg/injection, schedule: Q04DX003 (ip), vehicle: Klucel (hydroxypropylcellulose) (HPC)
[12] = dose: 400.0 mg/kg/injection, schedule: Q04DX003 (ip), vehicle: Klucel (hydroxypropylcellulose) (HPC)
[13] = dose: 100.0 mg/kg/injection, schedule: Q04DX002 (ip), vehicle: saline
[14] = dose: 200.0 mg/kg/injection, schedule: Q04DX002 (ip), vehicle: saline
[15] = dose: 100.0 mg/kg/injection, schedule: Q01DX009 (ip), vehicle: Klucel (hydroxypropylcellulose) (HPC)
[16] = dose: 200.0 mg/kg/injection, schedule: Q01DX009 (ip), vehicle: Klucel (hydroxypropylcellulose) (HPC)
[17] = dose: 400.0 mg/kg/injection, schedule: Q01DX009 (ip), vehicle: Klucel (hydroxypropylcellulose) (HPC)
[18] = dose: 100.0 mg/kg/injection, schedule: Q01DX009 (ip), vehicle: saline with Tween-80
[19] = dose: 200.0 mg/kg/injection, schedule: Q01DX009 (ip), vehicle: saline with Tween-80
[20] = dose: 400.0 mg/kg/injection, schedule: Q01DX009 (ip), vehicle: saline with Tween-80
[21] = dose: 50.0 mg/kg/injection, schedule: Q01DX009 (ip), vehicle: Klucel (hydroxypropylcellulose) (HPC)

Measured: T/C

CC1C[N+](C)=C2CCCCC2=C1N (centres undefined)
inactive: dose: 6.25 mg/kg/injection, schedule: Q01DX009 (ip), vehicle: saline 105 % of control | [1] 96 % of control | dose: 12.5 mg/kg/injection, schedule: Q01DX009 (ip), vehicle: saline 98 % of control | [2] 98 % of control | dose: 25.0 mg/kg/injection, schedule: Q01DX009 (ip), vehicle: saline 102 % of control | [3] 108 % of control

CCCCn1c2ccccc2c2ccccc21
inactive: dose: 50.0 mg/kg/injection, schedule: Q04DX003 (ip), vehicle: saline with Tween-80 96 % of control | [4] 96 % of control | [5] 102 % of control

CCCCCCCCCCCCCCCCC(C(=O)O)C(O)(CC(=O)O)C(=O)O (centres undefined)
inactive: dose: 19.0 mg/kg/injection, schedule: Q01DX Z (ip), vehicle: carboxymethylcellulose (CMC) 92 % of control | dose: 37.5 mg/kg/injection, schedule: Q01DX Z (ip), vehicle: carboxymethylcellulose (CMC) 92 % of control | dose: 75.0 mg/kg/injection, schedule: Q01DX Z (ip), vehicle: carboxymethylcellulose (CMC) 86 % of control and 87 % of control | dose: 150.0 mg/kg/injection, schedule: Q01DX Z (ip), vehicle: carboxymethylcellulose (CMC) 88 % of control

CC[C@H](CC[C@@H](C)[C@H]1CC[C@H]2[C@@H]3CC=C4C[C@@H](O)CC[C@]4(C)[C@H]3CC[C@]12C)C(C)C
inactive: dose: 12.5 mg/kg/injection, schedule: Q01DX001 (ip), vehicle: saline 93 % of control | [2] 98 % of control | dose: 25.0 mg/kg/injection, schedule: Q01DX001 (ip), vehicle: saline 94 % of control | [3] 105 % of control | dose: 50.0 mg/kg/injection, schedule: Q01DX001 (ip), vehicle: saline 88 % of control | [6] 98 % of control | dose: 75.0 mg/kg/injection, schedule: Q04DX003 (ip), vehicle: saline 89 % of control | [7] 89 % of control and 95 % of control | dose: 115.0 mg/kg/injection, schedule: Q04DX003 (ip), vehicle: saline 91 % of control | dose: 170.0 mg/kg/injection, schedule: Q04DX003 (ip), vehicle: saline 87 % of control | [8] 97 % of control | dose: 255.0 mg/kg/injection, schedule: Q04DX003 (ip), vehicle: saline with Tween-80 90 % of control | dose: 385.0 mg/kg/injection, schedule: Q04DX003 (ip), vehicle: saline with Tween-80 96 % of control | [9] 104 % of control and 107 % of control

CN(C)c1ccc(/C=C/C=C/C(=O)c2ccccc2)cc1
inactive: [10] 88 % of control | [11] 93 % of control | [12] 93 % of control

Cc1cc(C)nc(N(C)CC(=O)O)n1
inactive: dose: 50.0 mg/kg/injection, schedule: Q04DX002 (ip), vehicle: saline 100 % of control | [13] 95 % of control | [14] 103 % of control

CN1CCCC2C3=CC=C4CC(O)CCC4(C)C3CCC21C (centres undefined)
inactive: dose: 75.0 mg/kg/injection, schedule: Q01DX001 (ip), vehicle: carboxymethylcellulose (CMC) 98 % of control | dose: 150.0 mg/kg/injection, schedule: Q01DX001 (ip), vehicle: carboxymethylcellulose (CMC) 101 % of control

COC(=O)C(CSCc1ccccc1)NC(=O)OCc1ccccc1 (centres undefined)
inactive: [15] 96 % of control | [10] 90 % of control | [16] 94 % of control | [11] 87 % of control | [17] 94 % of control

Br/C(=N\Nc1nn[nH]n1)c1ccccc1
inactive: [18] 93 % of control | [19] 98 % of control | [20] 95 % of control

N#C/C(=C/Cc1ccc(Cl)cc1)Nc1ccccc1C(N)=O
inactive: dose: 12.5 mg/kg/injection, schedule: Q01DX001 (ip), vehicle: Klucel (hydroxypropylcellulose) (HPC) 101 % of control | dose: 25.0 mg/kg/injection, schedule: Q01DX001 (ip), vehicle: Klucel (hydroxypropylcellulose) (HPC) 101 % of control | dose: 50.0 mg/kg/injection, schedule: Q01DX001 (ip), vehicle: Klucel (hydroxypropylcellulose) (HPC) 102 % of control | dose: 75.0 mg/kg/injection, schedule: Q04DX003 (ip), vehicle: Klucel (hydroxypropylcellulose) (HPC) 104 % of control | dose: 115.0 mg/kg/injection, schedule: Q04DX003 (ip), vehicle: Klucel (hydroxypropylcellulose) (HPC) 104 % of control | dose: 170.0 mg/kg/injection, schedule: Q04DX003 (ip), vehicle: Klucel (hydroxypropylcellulose) (HPC) 98 % of control

Nc1ccc(OCCNC(=O)Nc2ccc(S(=O)(=O)F)cc2)c(Cl)c1
inactive: dose: 75.0 mg/kg/injection, schedule: Q01DX001 (ip), vehicle: other 96 % of control | dose: 150.0 mg/kg/injection, schedule: Q01DX001 (ip), vehicle: other 105 % of control | dose: 300.0 mg/kg/injection, schedule: Q01DX001 (ip), vehicle: other 98 % of control

CCCCCCCCCCCCCCCC(=O)OCCCCCCCCCCC
inactive: [4] 100 % of control | [5] 92 % of control | dose: 400.0 mg/kg/injection, schedule: Q04DX003 (ip), vehicle: saline with Tween-80 101 % of control

NC(=O)c1c(CC(=O)O)nn(-c2ccccc2)c1N
inactive: [21] 94 % of control | [15] 98 % of control | [16] 102 % of control

CC1N=C(N)NC(=O)C1c1ccc(Cl)cc1 (centres undefined)
inactive: [18] 103 % of control | [19] 100 % of control

COc1cccc2c(=O)c(C(=O)O)c[nH]c12
inactive: [21] 101 % of control | dose: 50.0 mg/kg/injection, schedule: Q04DX003 (ip), vehicle: Klucel (hydroxypropylcellulose) (HPC) 94 % of control | [15] 106 % of control | [13] 96 % of control | [10] 91 % of control | [16] 107 % of control | [14] 96 % of control | [11] 94 % of control | dose: 400.0 mg/kg/injection, schedule: Q04DX002 (ip), vehicle: saline 100 % of control

O=C(Cl)c1ccccc1/C=C/c1ccccc1
inactive: [18] 89 % of control | [19] 89 % of control | [20] 93 % of control

CCS(=O)(=O)C(CCC(S(=O)(=O)CC)S(=O)(=O)CC)S(=O)(=O)CC
inactive: [7] 110 % of control | [8] 96 % of control | [9] 102 % of control

CC1(C#N)c2ccccc2C=CN1C(=O)c1ccccc1 (centres undefined)
inactive: [15] 97 % of control | [16] 95 % of control | [17] 92 % of control

Cc1nc(C(N)=O)c(=O)[nH]c1C
inactive: [1] 95 % of control | [2] 97 % of control | [3] 94 % of control | [6] 101 % of control | [10] 102 % of control | [11] 100 % of control | [12] 100 % of control

O=S(=O)(c1ccccc1)C(I)I
inactive: dose: 10.0 mg/kg/injection, schedule: Q04DX002 (ip), vehicle: Klucel (hydroxypropylcellulose) (HPC) 96 % of control | dose: 20.0 mg/kg/injection, schedule: Q04DX002 (ip), vehicle: Klucel (hydroxypropylcellulose) (HPC) 94 % of control | dose: 40.0 mg/kg/injection, schedule: Q04DX002 (ip), vehicle: Klucel (hydroxypropylcellulose) (HPC) 100 % of control

CC(=O)COc1ccc(C(=O)Cl)cc1
inactive: [10] 95 % of control | [11] 102 % of control | dose: 300.0 mg/kg/injection, schedule: Q04DX003 (ip), vehicle: Klucel (hydroxypropylcellulose) (HPC) 106 % of control

CNC(=O)Nc1ccc(Cl)cc1
inactive: dose: 100.0 mg/kg/injection, schedule: Q01DX001 (ip), vehicle: Klucel (hydroxypropylcellulose) (HPC) 107 % of control | dose: 200.0 mg/kg/injection, schedule: Q01DX001 (ip), vehicle: Klucel (hydroxypropylcellulose) (HPC) 105 % of control | dose: 400.0 mg/kg/injection, schedule: Q01DX001 (ip), vehicle: Klucel (hydroxypropylcellulose) (HPC) 107 % of control
